According to the supplement of paper PMC11061612:

How the values were obtained:
Assay in all cases: combination Emax (second highest fraction inhibited in the dose matrix, 72 h); higher = more inhibition; extreme values may be limits of the assay
GB-1 (Glioblastoma) = system: GB-1 (Glioblastoma)
Procedure, shortened: (§1)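 Bliss excess equals the observed combination effect minus the expected value EA + EB − EA·EB, where EA and EB are the effects of each agent alone. Combination Emax is the second-highest inhibition within the matrix. Inhibition was scaled from CellTiter-Glo 2.0 luminescence, with 0 set by vehicle wells and 1 by blank wells, after 72 hours of two-drug dosing of cells plated in 1536-well plates.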

[1] = system: COLO-680N (Esophageal Squamous Cell Carcinoma)
Procedure, shortened: as §1

[2] = system: TE-8 (Esophageal Squamous Cell Carcinoma)
Procedure, shortened: as §1

LN-229 (Glioblastoma) = system: LN-229 (Glioblastoma)
Procedure, shortened: as §1

SF268 (Low Grade Glioma) = system: SF268 (Low Grade Glioma)
Procedure, shortened: as §1

[3] = system: MFE-280 (Endometrial Carcinoma)
Procedure, shortened: as §1

[4] = system: L-1236 (Hodgkin's Lymphoma)
Procedure, shortened: as §1

[5] = system: KE-37 (T-Lymphoblastic Leukemia)
Procedure, shortened: as §1

WM278 (Melanoma) = system: WM278 (Melanoma)
Procedure, shortened: as §1

[6] = system: FADU (Head and Neck Carcinoma)
Procedure, shortened: as §1

[7] = system: CAL-62 (Thyroid Gland Carcinoma)
Procedure, shortened: as §1

[8] = system: HSC-39 (Gastric Carcinoma)
Procedure, shortened: as §1

[9] = system: NCI-H2342 (Lung Adenocarcinoma)
Procedure, shortened: as §1

[10] = system: NCI-H23 (Lung Adenocarcinoma)
Procedure, shortened: as §1

A2058 (Melanoma) = system: A2058 (Melanoma)
Procedure, shortened: as §1

[11] = system: PC-3_[JPC-3] (Lung Adenocarcinoma)
Procedure, shortened: as §1

[12] = system: REH (B-Lymphoblastic Leukemia)
Procedure, shortened: as §1

[13] = system: 23132-87 (Gastric Carcinoma)
Procedure, shortened: as §1

[14] = system: RERF-GC-1B (Gastric Carcinoma)
Procedure, shortened: as §1

[15] = system: SU-DHL-10 (B-Cell Non-Hodgkin's Lymphoma)
Procedure, shortened: as §1

Compound	combination Emax (GB-1 (Glioblastoma))	combination Emax [1]	combination Emax [2]	combination Emax (LN-229 (Glioblastoma))	combination Emax (SF268 (Low Grade Glioma))	combination Emax [3]	combination Emax [4]	combination Emax [5]	combination Emax (WM278 (Melanoma))	combination Emax [6]	combination Emax [7]	combination Emax [8]	combination Emax [9]	combination Emax [10]	combination Emax (A2058 (Melanoma))	combination Emax [11]	combination Emax [12]	combination Emax [13]	combination Emax [14]	combination Emax [15]
CC1(C)CCC(CN2CCN(c3ccc(C(=O)NS(=O)(=O)c4ccc(NCC5CCOCC5)c([N+](=O)[O-])c4)c(Oc4cnc5[nH]ccc5c4)c3)CC2)=C(c2ccc(Cl)cc2)C1 [Venetoclax] + COc1cc(Nc2ncc3c(n2)-c2ccc(Cl)cc2C(c2c(F)cccc2OC)=NC3)ccc1C(=O)O [Alisertib] (first compound max 1 µM, 7x7, partner max 10 µM)	0.478	0.318	0.673	0.2	0.419	0.734	0.678	0.955	0.362	0.351	0.51	0.992	0.214	0.464	0.612	0.686	0.99	0	0.688	0.827
CC1(C)CCC(CN2CCN(c3ccc(C(=O)NS(=O)(=O)c4ccc(NCC5CCOCC5)c([N+](=O)[O-])c4)c(Oc4cnc5[nH]ccc5c4)c3)CC2)=C(c2ccc(Cl)cc2)C1 [Venetoclax] + C[C@@H]1COCCN1C2=NC(=NC(=C2)C3(CC3)[S@](=N)(=O)C)C4=C5C=CNC5=NC=C4 [AZD6738] (first compound max 1 µM, 7x7, partner max 10 µM)	0.424	0.278	0.793	0.582	0.64	0.423	0.847	1	0.623	0.614	0.83	1	0.265	0.822	0.788	0.442	0.996	0.433	0.428	0.912
CC1(C)CCC(CN2CCN(c3ccc(C(=O)NS(=O)(=O)c4ccc(NCC5CCOCC5)c([N+](=O)[O-])c4)c(Oc4cnc5[nH]ccc5c4)c3)CC2)=C(c2ccc(Cl)cc2)C1 [Venetoclax] + C[C@@H](Nc1cc(F)cc(F)c1)c1cc(C(=O)N(C)C)cc2c(=O)cc(N3CCOCC3)oc12 [AZD8186] (first compound max 1 µM, 7x7, partner max 3 µM)	0.168	0.111	0.401	0.0902	0.127	0.371	0.665	0.356	0.306	0.128	0.119	0.972	0.265	0.148	0.158	0.298	0.96	0.0687	0.103	0.735
CC1(C)CCC(CN2CCN(c3ccc(C(=O)NS(=O)(=O)c4ccc(NCC5CCOCC5)c([N+](=O)[O-])c4)c(Oc4cnc5[nH]ccc5c4)c3)CC2)=C(c2ccc(Cl)cc2)C1 [Venetoclax] + Cc1cc2ncnn2cc1Nc1ncc2c(n1)n(C1CCOCC1)c(=O)n2C [AZD7648] (first compound max 1 µM, 7x7, partner max 10 µM)	0.135	0.161	0.401	0.115	0.268	0.319	0.621	0.404	0.269	0.237	0.366	0.936	0.214	0.184	0.203	0.297	0.875	0.152	0.28	0.249
CC1(C)CCC(CN2CCN(c3ccc(C(=O)NS(=O)(=O)c4ccc(NCC5CCOCC5)c([N+](=O)[O-])c4)c(Oc4cnc5[nH]ccc5c4)c3)CC2)=C(c2ccc(Cl)cc2)C1 [Venetoclax] + Cn1cnc2c(F)c(Nc3ccc(Br)cc3Cl)c(C(=O)NOCCO)cc21 [Selumetinib] (first compound max 1 µM, 7x7, partner max 3 µM)	0.0816	0.159	0.457	0.3	0.157	0.18	0.731	0.352	0.633	0.364	0.256	0.936	0.193	0.264	0.493	0.173	0.897	0.0843	0.27	0.072
